Assay results from ChEMBL document CHEMBL1201862, “PubChem BioAssay data set” (2004).
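Five compound concentrations were applied to cells in 96-well plates for 48 hours; endpoints were derived by simple linear interpolation of the resulting dose-response curve. Here, GI50 denotes the concentration required for 50% inhibition of growth.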 Activity calls are given as the source filed them. Rule as the data show it: active = GI50 up to about 1.1 µM and inactive = higher.

Key:
Test in all cases: NCI-60 cell line screen, 48 h
RPMI-8226 = system: RPMI-8226
786-0 = system: 786-0
HOP-62 = system: HOP-62
T47D = system: T47D
NCI-H522 = system: NCI-H522
LOX IMVI = system: LOX IMVI
SK-MEL-2 = system: SK-MEL-2
SN12C = system: SN12C
NCI-H460 = system: NCI-H460
SNB-19 = system: SNB-19
DU-145 = system: DU-145
SK-MEL-5 = system: SK-MEL-5
NCI-H226 = system: NCI-H226
SK-OV-3 = system: SK-OV-3
NCI/ADR-RES = system: NCI/ADR-RES
MDA-MB-231 = system: MDA-MB-231
EKVX = system: EKVX
HCC 2998 = system: HCC 2998

| Structure (SMILES) | GI50 (RPMI-8226) | GI50 (786-0) | GI50 (HOP-62) | GI50 (T47D) | GI50 (NCI-H522) | GI50 (LOX IMVI) | GI50 (SK-MEL-2) | GI50 (SN12C) | GI50 (NCI-H460) | GI50 (SNB-19) | GI50 (DU-145) | GI50 (SK-MEL-5) | GI50 (NCI-H226) | GI50 (SK-OV-3) | GI50 (NCI/ADR-RES) | GI50 (MDA-MB-231) | GI50 (EKVX) | GI50 (HCC 2998) |
| --- | --- | --- | --- | --- | --- | --- | --- | --- | --- | --- | --- | --- | --- | --- | --- | --- | --- | --- |
| Nc1ccc2c(SCCSc3c4ccccc4nc4cc(N)ccc34)c3ccccc3nc2c1 | > 100 µM (inactive) | > 100 µM (inactive) | > 100 µM (inactive) | > 100 µM (inactive) | > 100 µM (inactive) | > 100 µM (inactive) | > 100 µM (inactive) | > 100 µM (inactive) | > 100 µM (inactive) | > 100 µM (inactive) | > 100 µM (inactive) | > 100 µM (inactive) | > 100 µM (inactive) | > 100 µM (inactive) | > 100 µM (inactive) | > 100 µM (inactive) | > 100 µM (inactive) |  |
| CCC1C(c2cc(OC)c(OC)c(OC)c2)c2cc3c(cc2OC1N1CCOCC1)OCO3 (stereo unspecified) |  | 11.6 µM (inactive) | 4.01 µM (inactive) | 10.5 µM (inactive) | 4.95 µM (inactive) | 2.48 µM (inactive) | 14.7 µM (inactive) | 8.15 µM (inactive) | 3.4 µM (inactive) | 4.14 µM (inactive) | 5.33 µM (inactive) | 1.44 µM (inactive) | 7.98 µM (inactive) | 4.88 µM (inactive) | 5.61 µM (inactive) | 15.8 µM (inactive) | 14.2 µM (inactive) |  |
| CCCCCCOc1ccc(NC2=C(Cl)C(=O)c3cccnc3C2=O)cc1 | 0.684 µM (active) | 1.48 µM (inactive) | 2.17 µM (inactive) | 1.62 µM (inactive) |  | 1.36 µM (inactive) | 1.59 µM (inactive) | 1.68 µM (inactive) | 1.79 µM (inactive) | 2.7 µM (inactive) | 1.55 µM (inactive) | 1.11 µM (active) | 1.74 µM (inactive) | 4.35 µM (inactive) |  |  | 1.67 µM (inactive) | 1.56 µM (inactive) |
| Cc1nc(N)nc(S)c1CCCNc1ccccc1 | 27.2 µM (inactive) | > 100 µM (inactive) | > 100 µM (inactive) | 20.4 µM (inactive) | 34.4 µM (inactive) | 54.5 µM (inactive) | 60.1 µM (inactive) | 69.7 µM (inactive) | 35 µM (inactive) | 89.7 µM (inactive) | 76.2 µM (inactive) | 27.5 µM (inactive) | > 100 µM (inactive) | > 100 µM (inactive) | > 100 µM (inactive) | > 100 µM (inactive) | 60 µM (inactive) |  |
| O=C1c2ccccc2N1C(=O)c1ccccc1[N+](=O)[O-] | 64.4 µM (inactive) | 57 µM (inactive) | 45.4 µM (inactive) | > 100 µM (inactive) | 91.2 µM (inactive) | 32.1 µM (inactive) | 90.8 µM (inactive) |  | > 100 µM (inactive) | > 100 µM (inactive) | > 100 µM (inactive) | 51.8 µM (inactive) | 12.3 µM (inactive) | > 100 µM (inactive) |  |  | > 100 µM (inactive) | > 100 µM (inactive) |
| COc1c(C)c(C/C=C(\C)CCCC(C)CCCC(C)CCCC(C)C)c(OC)c2ccccc12 (stereo unspecified) | > 100 µM (inactive) | > 100 µM (inactive) |  |  | > 100 µM (inactive) | > 100 µM (inactive) | > 100 µM (inactive) | > 100 µM (inactive) | > 100 µM (inactive) | > 100 µM (inactive) | > 100 µM (inactive) | > 100 µM (inactive) |  | > 100 µM (inactive) | > 100 µM (inactive) | > 100 µM (inactive) | > 100 µM (inactive) | > 100 µM (inactive) |
| CC(=O)c1ccc(N2CCN(C3=CC(=O)c4c(O)ccc(O)c4C3=O)CC2)cc1 | > 100 µM (inactive) | > 100 µM (inactive) | 29.9 µM (inactive) | > 100 µM (inactive) |  |  |  |  | 48.5 µM (inactive) | 62.4 µM (inactive) | > 100 µM (inactive) | > 10 µM (inactive) |  |  | 3.44 µM (inactive) | 13.4 µM (inactive) | > 100 µM (inactive) | > 100 µM (inactive) |
| NC(=O)CC[C@H]1C(=O)N=C(N)N1C(=O)OCc1ccccc1 | > 100 µM (inactive) | > 100 µM (inactive) | > 100 µM (inactive) |  | > 100 µM (inactive) | > 100 µM (inactive) | > 100 µM (inactive) | > 100 µM (inactive) | > 100 µM (inactive) | > 100 µM (inactive) | > 100 µM (inactive) | > 100 µM (inactive) | > 100 µM (inactive) |  | > 100 µM (inactive) | > 100 µM (inactive) | > 100 µM (inactive) | > 100 µM (inactive) |
| COc1cc(CSc2ccc(O)cc2)cc(OC)c1OC | 21.3 µM (inactive) | 55.3 µM (inactive) | 49.7 µM (inactive) | 22.6 µM (inactive) | 29.3 µM (inactive) | 59.8 µM (inactive) | 21 µM (inactive) | 52.5 µM (inactive) | 37.6 µM (inactive) | 34.6 µM (inactive) | 53.2 µM (inactive) | 18 µM (inactive) | 29 µM (inactive) | 62.2 µM (inactive) | 24.7 µM (inactive) | 43.2 µM (inactive) | 39.8 µM (inactive) |  |
| Cn1c(=O)cc(NCCc2ccccc2)[nH]c1=O | 6.12 µM (inactive) | 41 µM (inactive) | 30 µM (inactive) | 54.5 µM (inactive) |  | 46.6 µM (inactive) | 51.1 µM (inactive) | 23.3 µM (inactive) | 34.2 µM (inactive) | 77.8 µM (inactive) | 52 µM (inactive) | 18.8 µM (inactive) | > 100 µM (inactive) | 53.6 µM (inactive) | 24.7 µM (inactive) | 12.3 µM (inactive) | 54.7 µM (inactive) | 27.8 µM (inactive) |
| CCOC(=O)C1=C(Nc2cccc(OC)c2)OCC1=O | > 100 µM (inactive) | > 100 µM (inactive) | > 100 µM (inactive) | > 100 µM (inactive) |  | > 100 µM (inactive) | > 100 µM (inactive) |  | > 100 µM (inactive) | > 100 µM (inactive) | 68.7 µM (inactive) | > 100 µM (inactive) | > 100 µM (inactive) | > 100 µM (inactive) | > 100 µM (inactive) | > 100 µM (inactive) | > 100 µM (inactive) | > 100 µM (inactive) |
| CN1C(=O)C(CC=O)(C(C)(C)C)c2ccccc21 (stereo unspecified) | 37.9 µM (inactive) | 41.8 µM (inactive) | > 100 µM (inactive) | 47.1 µM (inactive) |  | 37.8 µM (inactive) | > 100 µM (inactive) | > 100 µM (inactive) | > 100 µM (inactive) | > 100 µM (inactive) | 56.4 µM (inactive) | > 100 µM (inactive) |  | > 100 µM (inactive) | > 100 µM (inactive) | > 100 µM (inactive) |  | > 100 µM (inactive) |
| O=[N+]([O-])C1CC/C(=N/O)c2nonc21 (stereo unspecified) | > 10 µM (inactive) | > 10 µM (inactive) | > 10 µM (inactive) | > 10 µM (inactive) |  |  |  | > 10 µM (inactive) | > 10 µM (inactive) | > 10 µM (inactive) | > 10 µM (inactive) | > 10 µM (inactive) | > 10 µM (inactive) |  | > 10 µM (inactive) | > 10 µM (inactive) | > 10 µM (inactive) | > 10 µM (inactive) |
| CC(C)(C)[Si](C)(C)OCC1OC(n2cnc3c(N)ncnc32)C(O)C1O (stereo unspecified) | 81.3 µM (inactive) | > 100 µM (inactive) | > 100 µM (inactive) | 24.4 µM (inactive) | > 100 µM (inactive) | > 100 µM (inactive) | > 100 µM (inactive) | > 100 µM (inactive) | > 100 µM (inactive) | > 100 µM (inactive) | > 100 µM (inactive) | 26.5 µM (inactive) | > 100 µM (inactive) | 30.7 µM (inactive) | 87.7 µM (inactive) | 96.4 µM (inactive) | > 100 µM (inactive) |  |
| OCc1c2c(cc3c1CC1(C3)Cc3cc4c(c(CO)c3C1)CCC4)CCC2 | 21.1 µM (inactive) | 14.2 µM (inactive) | 15.6 µM (inactive) | 12.7 µM (inactive) | 13.3 µM (inactive) | 15.1 µM (inactive) | 19.8 µM (inactive) | 16.9 µM (inactive) |  |  |  | 5.81 µM (inactive) | 11.6 µM (inactive) | 17.5 µM (inactive) | 15.1 µM (inactive) | 15.2 µM (inactive) | 14.6 µM (inactive) | 17.5 µM (inactive) |
| COc1ccc(-c2nnc(-c3ccncc3)o2)cc1 | > 100 µM (inactive) | > 100 µM (inactive) | > 100 µM (inactive) | > 100 µM (inactive) | > 100 µM (inactive) | > 100 µM (inactive) | > 100 µM (inactive) | > 100 µM (inactive) |  | 78.7 µM (inactive) | > 100 µM (inactive) | > 100 µM (inactive) | > 100 µM (inactive) | > 100 µM (inactive) | > 100 µM (inactive) | > 100 µM (inactive) | > 100 µM (inactive) |  |
| NNc1nnc(CCCCCCCCc2nnc(NN)n2N)n1N |  | 33.1 µM (inactive) | 37.2 µM (inactive) |  | 38.7 µM (inactive) | 21.4 µM (inactive) | 84.5 µM (inactive) | > 100 µM (inactive) | > 100 µM (inactive) | 64.3 µM (inactive) | > 100 µM (inactive) | > 100 µM (inactive) | > 100 µM (inactive) | > 100 µM (inactive) | 80.4 µM (inactive) | 41.5 µM (inactive) | > 100 µM (inactive) | 33.3 µM (inactive) |
| c1ccc(/C(=N/Nc2cnccn2)c2ncccn2)cc1 | > 100 µM (inactive) | 81.3 µM (inactive) | 53.5 µM (inactive) |  | 14.9 µM (inactive) |  | > 100 µM (inactive) | > 100 µM (inactive) | > 100 µM (inactive) | > 100 µM (inactive) | 90.2 µM (inactive) | 39.9 µM (inactive) |  | 57.7 µM (inactive) | 83.2 µM (inactive) | 68.2 µM (inactive) | 18.2 µM (inactive) | > 100 µM (inactive) |
